Test results: the NIST ThermoML archive (doi:10.1016/j.jct.2014.04.017)
Numbers after ± are expanded uncertainties.

Conditions: 101.33 kPa, Liquid, Buoyancy - hydrostatic balance

CCCC[n+]1ccn(C)c1.O=S(=O)([N-]S(=O)(=O)C(F)(F)F)C(F)(F)F
Conditions	mass density [kg/m3]
274.86 K	1458.44 ± 0.56
277.17 K	1456.4 ± 0.56
281.91 K	1452.1 ± 0.56
287.89 K	1446.21 ± 0.56
293.45 K	1441.4 ± 0.56
298.34 K	1436.71 ± 0.56
303.07 K	1432.1 ± 0.56
308.18 K	1426.64 ± 0.56
313.04 K	1422.13 ± 0.56
318.02 K	1417.45 ± 0.56
323.1 K	1412.39 ± 0.56
328.17 K	1407.64 ± 0.56
333.42 K	1403.16 ± 0.56
338.42 K	1398.52 ± 0.56
343.02 K	1394.25 ± 0.56
348.36 K	1389.71 ± 0.56
352.89 K	1385.06 ± 0.56
358.03 K	1380.66 ± 0.56
364.37 K	1374.57 ± 0.56

CCn1cc[n+](C)c1.O=S(=O)([N-]S(=O)(=O)C(F)(F)F)C(F)(F)F
Conditions	mass density [kg/m3]
261.46 K	1556.58 ± 1
268.29 K	1548.72 ± 1
273.3 K	1544.02 ± 1
278.37 K	1539.04 ± 1
282.48 K	1535.02 ± 1
287.45 K	1529.96 ± 1
293.11 K	1524.41 ± 1
298.13 K	1519.52 ± 1
302.98 K	1514.33 ± 1
308.32 K	1508.35 ± 1
313.89 K	1503.28 ± 1
318.09 K	1498.65 ± 1
323.34 K	1493.84 ± 1
328.03 K	1488.18 ± 1
333.55 K	1483.58 ± 1
337.88 K	1479.01 ± 1
342.95 K	1473.82 ± 1
348.1 K	1469.36 ± 1
352.98 K	1464.95 ± 1
357.53 K	1460.04 ± 1
363.55 K	1453.65 ± 1

CCCCn1cc[n+](C)c1C.F[P-](F)(F)(F)(F)F [1-butyl-2,3-dimethylimidazolium hexafluorophosphate]
Conditions	mass density [kg/m3]
308.17 K	1342.4 ± 0.49
313.09 K	1338.43 ± 0.48
318.12 K	1334.34 ± 0.48
323.15 K	1330.39 ± 0.48
328.24 K	1326.32 ± 0.48
333.37 K	1322.54 ± 0.48
338.85 K	1318.34 ± 0.48
343.33 K	1314.8 ± 0.48
347.97 K	1310.87 ± 0.48
352.71 K	1307.2 ± 0.48
357.94 K	1302.89 ± 0.47
364.63 K	1298.26 ± 0.47

CCCCCC[n+]1ccn(C)c1.O=S(=O)([N-]S(=O)(=O)C(F)(F)F)C(F)(F)F
Conditions	mass density [kg/m3]
262.98 K	1405.31 ± 0.54
268.26 K	1400.21 ± 0.54
272.74 K	1395.9 ± 0.54
278.03 K	1390.98 ± 0.54
283.18 K	1385.8 ± 0.54
288.12 K	1381.67 ± 0.54
292.84 K	1377.27 ± 0.54
298.15 K	1372.76 ± 0.54
303.13 K	1368.35 ± 0.54
308.26 K	1362.94 ± 0.54
313.34 K	1358.8 ± 0.54
318.28 K	1354.33 ± 0.54
323.34 K	1349.1 ± 0.54
328.18 K	1345.78 ± 0.54
332.77 K	1341.44 ± 0.54
338.51 K	1336.76 ± 0.54
343.65 K	1332.79 ± 0.54
348.22 K	1328.79 ± 0.54
352.66 K	1324.84 ± 0.54
358.06 K	1320.79 ± 0.54
364.78 K	1314.72 ± 0.54

CCCn1cc[n+](C)c1.F[P-](F)(F)(F)(F)F [1-methyl-3-propylimidazolium hexafluorophosphate]
Conditions	mass density [kg/m3]
303.08 K	1410.96 ± 0.46
313.18 K	1402.37 ± 0.45
318.04 K	1398.33 ± 0.45
323.07 K	1393.53 ± 0.45
328.22 K	1389.63 ± 0.45
333.39 K	1385.32 ± 0.45
338.41 K	1381.11 ± 0.44
343.27 K	1377.03 ± 0.44
348.16 K	1372.97 ± 0.44
352.56 K	1369.14 ± 0.44
358.11 K	1364.85 ± 0.44
364.89 K	1359.36 ± 0.44

CCCC[n+]1cccc(C)c1.F[P-](F)(F)(F)(F)F [1-butyl-3-methylpyridinium hexafluorophosphate]
Conditions	mass density [kg/m3]
322.98 K	1321.09 ± 0.35
327.57 K	1317.44 ± 0.34
333.44 K	1312.89 ± 0.34
338.78 K	1308.72 ± 0.34
343.67 K	1304.93 ± 0.34
348.19 K	1301.53 ± 0.34
353.1 K	1297.87 ± 0.33
358.08 K	1294.06 ± 0.33
364.61 K	1289.01 ± 0.33

C[n+]1cc[nH]c1.O=S(=O)([N-]S(=O)(=O)C(F)(F)F)C(F)(F)F [1-methylimidazolium bis(trifluoromethylsulfonyl)imide]
Conditions	mass density [kg/m3]
323.28 K	1614.04 ± 2.1
325.58 K	1610.84 ± 2.1
328.01 K	1607.46 ± 2.1
330.51 K	1605.18 ± 2.1
333.62 K	1601.54 ± 2.1
335.65 K	1599.35 ± 2.1
338.58 K	1596.52 ± 2.1
340.97 K	1593.47 ± 2
343.62 K	1590.71 ± 2
